Literature values as cited in patent US20220354783A1, “INJECTABLE PROLONGED-ACTION COMPOSITIONS FOR USE IN THE TREATMENT OF NAIL DISEASE AND/OR FOR PROMOTING NAIL GROWTH” (EDIX-O SARL, priority 2018, published 2022).

System: nail diseases
Conditions: oral forms, 250 mg per day for 6 to 12 weeks

Q: Which “total healing in clinical studies” value does the source give for `CN(C/C=C/C#CC(C)(C)C)Cc1cccc2ccccc12` [terbinafine] here?
A: 38%
